Measured values taken from US7163952B2, “Azole compound and medicinal use thereof” (Japan Tobacco Inc., priority 2001, dated 2007).
Structures can show the parent of a compound that is named as a salt.

melting point | SMILES
240 °C | CN(Cc1ccc(C2CCCCC2)cc1)c1ccc(-c2csc(N(C)Cc3ccc(C(=O)[O-])cc3)n2)cc1.[K+]
167 to 170 °C | CN(Cc1ccc(C2CCCCC2)cc1)c1ccc(-c2csc(N(C)Cc3ccc(C(=O)O)cc3)n2)cc1.CS(=O)(=O)O
130 °C (dec.) | CN(Cc1ccc(C2CCCCC2)cc1)c1ccc(-c2csc(N(C)Cc3ccc(C(=O)O)cc3)n2)cc1.O=S(=O)(O)O
231 to 233 °C | CN(c1ccc(C(=O)O)cc1)c1nc(-c2ccc(NCc3ccc(C4CCCCC4)cc3)cc2)cs1.CS(=O)(=O)O
239 °C (dec.) | CN(c1ccc(C(=O)O)cc1)c1nc(-c2ccc(NCc3ccc(C4CCCCC4)cc3)cc2)cs1.O=S(=O)(O)O
230 °C (dec.) | CC(C)N(c1ccc(C(=O)O)cc1)c1nc(-c2ccc(NC(=O)c3ccc(N4CCOCC4)cc3)cc2)cs1.Cl
220 °C (dec.) | CC(C)N(c1cccc(C(=O)O)c1)c1nc(-c2ccc(NC(=O)c3ccc(N4CCCCC4)cc3)cc2)cs1.Cl
230 °C (dec.) | CC(C)N(c1cccc(C(=O)O)c1)c1nc(-c2ccc(NC(=O)c3ccc(N4CCOCC4)cc3)cc2)cs1.Cl
230 °C (dec.) | CC(C)N(c1ccc(C(=O)O)cc1)c1nc(-c2ccc(NC(=O)c3ccc(N4CCCCC4)cc3)cc2)cs1.Cl
230 °C (dec.) | CC1CCN(c2ccc(C(=O)Nc3ccc(-c4csc(N(c5ccc(C(=O)O)cc5)C(C)C)n4)cc3)cc2)CC1.Cl
152 to 160 °C | CC1CC(C)CN(c2ccc(C(=O)Nc3ccc(-c4csc(N(c5ccc(C(=O)O)cc5)C(C)C)n4)cc3)cc2)C1.Cl (stereo not shown)
230 °C (dec.) | CC(C)N(c1ccc(C(=O)O)cc1)c1nc(-c2ccc(NC(=O)c3ccc(N4C[C@@H](C)O[C@@H](C)C4)cc3)cc2)cs1.Cl
220 °C (dec.) | CC(C)N(c1ccc(C(=O)O)c(Cl)c1)c1nc(-c2ccc(NC(=O)c3ccc(N4CCCCC4)cc3)cc2)cs1.Cl
220 °C (dec.) | CC(C)N(c1ccc(C(=O)O)c(Cl)c1)c1nc(-c2ccc(NC(=O)c3ccc(N4CCOCC4)cc3)cc2)cs1.Cl
135 to 140 °C | CC(C)N(Cc1ccc(C(=O)O)cc1)c1nc(-c2ccc(OCc3cccc(N4CCCCC4)c3)cc2)cs1 (as salt: hydrochloride) [Example 127, 4-((N-isopropyl-N-(4-(4-(3-piperidinobenzyloxy)phenyl)-2-thiazolyl)amino)methyl)benzoic acid dihydrochloride]
173 to 176 °C | O=C(O)c1ccc(N(CCC2CCCCC2)c2nc(-c3nc4cc(OCc5ccc(Cl)c(Cl)c5)ccc4[nH]3)cs2)cc1 (as salt: hydrochloride) [Example 185, 4-(N-(2-cyclohexylethyl)-N-(4-(5-(3,4-dichlorobenzyloxy)-2-benzoimidazolyl)-2-thiazolyl)amino)benzoic acid hydrochloride]
220 °C | O=C(O)c1ccc(Nc2nc(-c3nc4cc(OCc5ccc(Cl)c(Cl)c5)ccc4[nH]3)cs2)cc1 (as salt: hydrochloride) [Example 186, 4-(4-(5-(3,4-dichlorobenzyloxy)-2-benzoimidazolyl)-2-thiazolylamino)benzoic acid hydrochloride]
234 to 236 °C | CN(c1ccc(C(=O)O)cc1)c1nc(-c2ccc(NCc3ccc(C4CCCCC4)cc3)cc2)cs1 (as salt: hydrochloride) [Example 258, 4-(N-(4-(4-(4-cyclohexylbenzylamino)phenyl)-2-thiazolyl)-N-methylamino)benzoic acid hydrochloride]
220 °C | CN(Cc1ccc([C@H]2CCC[C@@H](O)C2)cc1)c1ccc(-c2csc(N(C)Cc3ccc(C(=O)O)cc3)n2)cc1 (relative stereo) [Example 205, cis-4-((N-(4-(4-(N-(4-(3-hydroxycyclohexyl)benzyl)-N-methylamino)phenyl)-2-thiazolyl)-N-methylamino)methyl)benzoic acid]
159 to 161 °C | CN(Cc1ccc([C@H]2CCC[C@H](O)C2)cc1)c1ccc(-c2csc(N(C)Cc3ccc(C(=O)O)cc3)n2)cc1 (relative stereo) [Example 206, trans-4-((N-(4-(4-(N-(4-(3-hydroxycyclohexyl)benzyl)-N-methylamino)phenyl)-2-thiazolyl)-N-methylamino)methyl)benzoic acid]

melting point | SMILES
250 °C (dec.) | O=C(O)c1ccc(Nc2nc(-c3ccc(NC(=O)c4ccccc4)cc3)cs2)cc1 [Example 4, 4-(4-(4-benzoylaminophenyl)-2-thiazolylamino)benzoic acid]
250 °C (dec.) | CC(C)(C)c1ccc(C(=O)Nc2ccc(-c3csc(Nc4ccc(C(=O)O)cc4)n3)cc2)cc1 [Example 5, 4-(4-(4-(4-tert-butylbenzoylamino)phenyl)-2-thiazolylamino)benzoic acid]
250 °C (dec.) | O=C(O)c1ccc(Nc2nc(-c3ccc(NC(=O)c4ccc(C5CCCCC5)cc4)cc3)cs2)cc1 [Example 6, 4-(4-(4-(4-cyclohexylbenzoylamino)phenyl)-2-thiazolylamino)benzoic acid]
250 °C (dec.) | CCN(c1ccc(C(=O)O)cc1)c1nc(-c2ccc(NC(=O)c3ccccc3)cc2)cs1 [Example 7, 4-(N-(4-(4-benzoylaminophenyl)-2-thiazolyl)-N-ethylamino)benzoic acid]
250 °C (dec.) | CCN(c1ccc(C(=O)O)cc1)c1nc(-c2ccc(NC(=O)c3ccc(C4CCCCC4)cc3)cc2)cs1 [Example 8, 4-(N-(4-(4-(4-cyclohexylbenzoylamino)phenyl)-2-thiazolyl)-N-ethylamino)benzoic acid]
234 to 236 °C | CC(C)N(c1ccc(C(=O)O)cc1)c1nc(-c2ccc(NC(=O)c3ccccc3)cc2)cs1 [Example 9, 4-(N-(4-(4-benzoylaminophenyl)-2-thiazolyl)-N-isopropylamino)benzoic acid]
230 °C (dec.) | CC(C)N(c1ccc(C(=O)O)cc1)c1nc(-c2ccc(NC(=O)c3ccc(C4CCCCC4)cc3)cc2)cs1 [Example 10, 4-(N-(4-(4-(4-cyclohexylbenzoylamino)phenyl)-2-thiazolyl)-N-isopropylamino)benzoic acid]
250 °C (dec.) | CCN(c1ccc(C(=O)O)cc1)c1nc(-c2ccc(NC(=O)C3CCCCC3)cc2)cs1 [Example 11, 4-(N-(4-(4-(cyclohexanecarbonylamino)phenyl)-2-thiazolyl)-N-ethylamino)benzoic acid]
230 °C (dec.) | CC(C)N(c1ccc(C(=O)O)cc1)c1nc(-c2ccc(NC(=O)C3CCCCC3)cc2)cs1 [Example 12, 4-(N-(4-(4-(cyclohexanecarbonylamino)phenyl)-2-thiazolyl)-N-isopropylamino)benzoic acid]
231 to 232 °C | CC(C)CN(c1ccc(C(=O)O)cc1)c1nc(-c2ccc(NC(=O)C3CCCCC3)cc2)cs1 [Example 13, 4-(N-(4-(4-(cyclohexanecarbonylamino)phenyl)-2-thiazolyl)-N-isobutylamino)benzoic acid]
210 °C (dec.) | O=C(O)CN(c1ccc(C(=O)O)cc1)c1nc(-c2ccc(NC(=O)C3CCCCC3)cc2)cs1 [Example 14, 4-(N-carboxymethyl-N-(4-(4-(cyclohexanecarbonylamino)phenyl)-2-thiazolyl)amino)benzoic acid]
234 to 235 °C | CC(C)CN(c1ccc(C(=O)O)cc1)c1nc(-c2ccc(NC(=O)c3ccccc3)cc2)cs1 [Example 15, 4-(N-(4-(4-benzoylaminophenyl)-2-thiazolyl)-N-isobutylamino)benzoic acid]
210 °C (dec.) | O=C(O)CN(c1ccc(C(=O)O)cc1)c1nc(-c2ccc(NC(=O)c3ccccc3)cc2)cs1 [Example 16, 4-(N-(4-(4-benzoylaminophenyl)-2-thiazolyl)-N-carboxymethylamino)benzoic acid]
230 °C (dec.) | CC(C)CN(c1ccc(C(=O)O)cc1)c1nc(-c2ccc(NC(=O)c3ccc(C4CCCCC4)cc3)cc2)cs1 [Example 17, 4-(N-(4-(4-(4-cyclohexylbenzoylamino)phenyl)-2-thiazolyl)-N-isobutylamino)benzoic acid]
230 °C (dec.) | O=C(O)CN(c1ccc(C(=O)O)cc1)c1nc(-c2ccc(NC(=O)c3ccc(C4CCCCC4)cc3)cc2)cs1 [Example 18, 4-(N-carboxymethyl-N-(4-(4-(4-cyclohexylbenzoylamino)phenyl)-2-thiazolyl)amino)benzoic acid]
250 °C (dec.) | CN(c1ccc(C(=O)O)cc1)c1nc(-c2ccc(NC(=O)c3ccc(C4CCCCC4)cc3)cc2)cs1 [Example 19, 4-(N-(4-(4-(4-cyclohexylbenzoylamino)phenyl)-2-thiazolyl)-N-methylamino)benzoic acid]
250 °C (dec.) | CN(c1ccc(C(=O)O)cc1)c1nc(-c2ccc(NC(=O)c3ccc(C(C)(C)C)cc3)cc2)cs1 [Example 20, 4-(N-(4-(4-(4-tert-butylbenzoylamino)phenyl)-2-thiazolyl)-N-methylamino)benzoic acid]
250 °C (dec.) | O=C(O)c1ccc(Nc2nc(-c3ccc(OCc4ccc(C5CCCCC5)cc4)cc3)cs2)cc1 [Example 21, 4-(4-(4-(4-cyclohexylbenzyloxy)phenyl)-2-thiazolylamino)benzoic acid]
250 °C (dec.) | CN(c1ccc(C(=O)O)cc1)c1nc(-c2ccc(OCc3ccc(C4CCCCC4)cc3)cc2)cs1 [Example 22, 4-(N-(4-(4-(4-cyclohexylbenzyloxy)phenyl)-2-thiazolyl)-N-methylamino)benzoic acid]
239 to 247 °C | CCN(c1ccc(C(=O)O)cc1)c1nc(-c2ccc(OCc3ccc(C4CCCCC4)cc3)cc2)cs1 [Example 23, 4-(N-(4-(4-(4-cyclohexylbenzyloxy)phenyl)-2-thiazolyl)-N-ethylamino)benzoic acid]

SMILES | melting point
CN(Cc1ccc(C(=O)O)cc1)c1nc(-c2ccc(OCc3ccc(C4CCCCC4)cc3)cc2)cs1.CS(=O)(=O)O | 175 °C (dec.)
CN(Cc1ccc(C(=O)O)cc1)c1nc(-c2ccc(OCc3ccc(C4CCCCC4)cc3)cc2)cs1.O=S(=O)(O)O | 182 to 183 °C
CN(Cc1ccc(C(=O)O)cc1)c1nc(-c2ccc(OCc3ccc(C4CCCCC4)cc3)cc2)cs1 (as salt: hydrochloride) [Example 252, 4-((N-(4-(4-(4-cyclohexylbenzyloxy)phenyl)-2-thiazolyl)-N-methylamino)methyl)benzoic acid hydrochloride] | 174 °C (dec.)
